Experimental findings from patent US20090110708A1, “ANIMATE TISSUE ANTISEPSIS” (priority 2007, published 2009) are described below.

The test relates to Staphylococcus aureus. As to the kind of experiment: Kill of Staphylococcus aureus inoculated onto inanimate porcine intestine by forced evaporation of the applied solution. Format: cell-based.

Consider `OO` [H2O2, hydrogen peroxide], for which the “death of the organisms (kill by enhanced evaporation)” value (initial H2O2 concentrations 4%-10% (vol.), 16 mg/cm^2 on tissue, blown air 50° C., 5.0 m/sec) was “significantly killed”. Moreover, the log reduction (no alcohol, 3 minute dry time) was 2.21; the log reduction (no alcohol, 3.5 minute dry time) is given as 2.68; the log reduction (no alcohol, 4 minute dry time) was 1.79.

Regarding “ethyl alcohol [10% alcohol (EtOH), reference compound]”, the log reduction entry (no peroxide, 10% alcohol (EtOH)) was “no measurable log reduction”.
